In patent US20250339567A1, “COMPOUNDS WITH IMPROVED PHARMACOKINETICS FOR IMAGING AND THERAPY OF CANCER” (priority 2019, published 2025):
“Also recorded” adds a separate entry of the source. Values belong to the compound of their own block, whether it stands above or below them. Starred links: 1 amine or outer side, 2 acyl side, 3 side chain; linkers in the order of their positions; H or OH if unused. Non-standard residues stand in square brackets, D forms with d. Residues, ends and D or L forms follow the SMILES beside them. *: point of attachment. Sta = CC(C)C[C@H](N)[C@@H](O)CC(=O)O; Bta = N[C@@H](Cc1csc2ccccc12)C(=O)O; X1 = O=C(CN1CCC(N[*:1])CC1)[*:2]; X2 = NCCNCC(CNCCN)C(=O)*

Legend:
[1] = system: PC-3 tumor-bearing CB17-SCID mice; test: Biodistribution in PC-3 tumor-bearing CB17-SCID mice; format: in vivo
Procedure: All animal experiments were conducted in accordance with general animal welfare regulations in Germany (German animal protection act, as amended on 18 May 2018, Art. 141 G v. 29.3.2017 | 626, approval no. ROB-55.2-2532.Vet_02-18-109) and the institutional guidelines for the care and use of animals. To establish tumor xenografts, PC-3 cells (5×10^6 cells per 200 μL) were suspended in a 1:1 mixture (v/v) of Dulbecco's modified eagle's medium/Ham's F-12 (DMEM/F-12) with Glutamax-I (1:1) and Cultrex® Basement Membrane Matrix Type 3 (Trevigen Inc., Gaithersburg, MD, USA) and inoculated subcutaneously onto the right shoulder of 6-10 weeks old female CB17-SCID mice (Charles River Laboratories International Inc., Sulzfeld, Germany). Mice were used for experiments when tumor volume was 125-500 mm^3 (2-3 weeks after inoculation).
Approximately 1-5 MBq ([…]) of the radiolabeled GRPR antagonists were injected into the tail vein of PC-3 tumor-bearing mice and sacrificed at 1, 4 or 24 h p.i. (n=4). Selected organs were removed, weighted and measured in a γ-counter (Perkin Elmer, Waltham, MA, USA).

[2] = n-Octanol-PBS distribution coefficient, log D7.4; format: physicochemical; settings: 99mTc-labeled; n-octanol/PBS pH 7.4
Procedure: Approximately 1 MBq of the labeled tracer was dissolved in 1 mL of a 1:1 mixture (v/v) of phosphate buffered saline (PBS, pH=7.4) and n-octanol in an Eppendorf tube. After vigorous mixing of the suspension for 3 min at room temperature, the vial was centrifuged at 9000 rpm for 5 min (Biofuge 15, Heraus Sepatech, Osterode, Germany) and 200 μL aliquots of both layers were measured in a γ-counter. The experiment was repeated at least four times.

GRPR = target: T1, GRPR (Homo sapiens, UniProt P30550); test: Determination of GRPR affinity (IC50), competition with [D-3-[125I]I-Tyr6]MJ9 on PC-3 cells; format: binding; settings: 2 h, r.t.
T1 construct: endogenous in cells; host or cells: PC-3 cells
T1 sequence (P30550 whole entry): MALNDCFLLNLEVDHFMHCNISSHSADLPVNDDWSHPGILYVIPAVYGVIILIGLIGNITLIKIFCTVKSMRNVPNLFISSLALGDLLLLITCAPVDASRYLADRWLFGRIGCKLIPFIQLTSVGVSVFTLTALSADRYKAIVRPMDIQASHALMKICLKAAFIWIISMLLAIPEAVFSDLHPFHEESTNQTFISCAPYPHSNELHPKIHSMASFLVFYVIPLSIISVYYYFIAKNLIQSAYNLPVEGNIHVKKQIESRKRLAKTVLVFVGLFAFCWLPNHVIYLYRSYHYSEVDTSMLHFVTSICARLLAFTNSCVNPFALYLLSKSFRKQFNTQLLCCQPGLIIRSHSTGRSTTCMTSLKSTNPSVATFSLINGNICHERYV
Procedure: The reference ligand for IC50 studies ([D-3-[^125I]I-Tyr^6]MJ9) is prepared according to a previously published procedure. Briefly, 0.2 mg of [D-Tyr^6]MJ9 are dissolved in 20 μL Tracepur water and 280 μL TRIS buffer (25 mm TRIS HCl, 0.4 M NaCl, pH=7.9). After addition of the solution to a vial containing 150 μg Iodo-Gen® (1,3,4,6-Tetrachloro-3α,6α-diphenylglycouril, surface-bound), 5.0 μL (16 MBq) [^125I]Nal(74 TBq/mmol, 3.1 GBq/mL, 40 mM NaOH, Hartmann Analytic, Braunschweig, Germany) are added.
The GRPR-positive PC-3 cells are cultured in Dublecco modified Eagle medium/Nutrition Mixture F-12 with Glutamax-I (1:1) (Invitrigon), supplemented with 10% fetal calf serum and maintained at 37° C. in a humidified 5% CO2 atmosphere.
After removal of the culture medium, the cells are washed once with 500 μL of HBSS (Hank's balanced salt solution, Biochrom, Berlin, Germany, with addition of 1% bovine serum albumin (BSA)) and left in 200 μL HBSS (1% BSA) for 9 min at room temperature for equilibration. Next, 25 μL per well of solutions, containing either HBSS (1% BSA) as control or the respective ligand in increasing concentration (10^−10 M-10^−4 M in HBSS), are added with subsequent addition of 25 μL of [D-3-[^125I]I-Tyr^6]MJ9 (2.0 nM) in HBSS (1% BSA).
All experiments are performed in triplicate for each concentration. After 2 h incubation at room temperature, the experiment is terminated by removal of the medium and consecutive rinsing with 300 μL of HBSS. The media of both steps are combined in one fraction and represent the amount of free radiolabeled reference. Afterwards, the cells are lysed with 300 μL of 1 M NaOH for at least 15 min and united with the 300 μL NaOH of the following washing step. Quantification of bound and free radiolabeled reference is accomplished in a γ-counter.
IC50 determination for each ligand was repeated twice.

[3] = Plasma studies: metabolic stability in vitro in human plasma (radio RP-HPLC); format: in vitro ADME; settings: 37° C.
Method in brief: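 Radiotracer incubated in human or murine plasma at 37° C. immediately after labeling, for 72±2 h or 6±0.5 h. Proteins precipitated with ice-cold EtOH and MeCN and centrifuged. Supernatant analysed by radio RP-HPLC.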

[4] = Plasma studies: metabolic stability in vitro in murine plasma (radio RP-HPLC); format: in vitro ADME; settings: 37° C.
Procedure: Metabolic stability in vitro was determined applying a procedure published by Linder et al. that was slightly modified. Immediately after labeling, human (200 μL) or murine (100 μL) plasma was added and the mixture was incubated at 37° C. for 72±2 h (or 6±0.5 h). Proteins were precipitated by treatment with ice-cold EtOH (150 μL [human], 100 μL [murine]) and ice-cold MeCN (450 μL [human], 300 μL [murine]), followed by centrifugation for 20 min at 13000 rpm. The supernatants were decanted and further analyzed using radio RP-HPLC.
Therefore, only 100 μL of murine plasma was added to the tracer solution (final volume of 200 μL) immediately after labeling was finished. According to Linder et al. (Bioconjugate Chem. 20, 1171-1178 (2009)), metabolism is more rapid in murine than in human plasma for which reason the experiment was terminated after incubation at 37° C. for 6±0.5 h (FIGS. 5 and 6). Nevertheless, due to a smaller volume the murine mixture was additionally examined after incubation at 37° C. for 72±2 h (FIGS. 7 and 8).

PC-3 cells = test: Internalization into PC-3 cells; format: cell-based; settings: c = 1 nM, 1 h, 37° C., corrected for non-specific binding (10^-3 M [natLu]RM2)
Procedure: For internalization studies, PC-3 cells are harvested 24±2 h before the experiment and seeded in 24-well plates (1.5×10^5 cells/well, 1 mL). Subsequent to the removal of the culture medium, the cells are washed once with 500 μL DMEM/F-12 (5% BSA) and left to equilibrate at 37° C. for at least 15 min in 200 μL DMEM/F-12 (5% BSA). […] Next, 25 μL of the ^125I/^177Lu-labeled GRPR ligand (10 nm) is added and the cells are incubated at 37° C. for 60 min.
The experiment is terminated by placing the 24-well plate on ice for 1 min and consecutive removal of the medium. Each well is rinsed with 300 μL ice-cold PBS and the fractions from these first two steps are combined, representing the amount of free radiolabeled reference. Removal of surface bound activity is accomplished by incubation of the cells with 300 μL of ice-cold Acid Wash solution (0.02 M NaOAc, pH=5.0) for 10 min at room temperature and rinsed again with 300 μL of ice-cold PBS. The internalized activity is determined by incubation of the cells in […] NaOH (1 M) and the combination with the fraction of a subsequent washing step with 300 μL NaOH (1 M).
Each experiment (control and blockade) is performed sixfold. Free, surface bound and internalized activity is quantified in a γ-counter. Data is corrected for non-specific internalization.

[5] = human plasma, 72±2 h, FIGS. 1-4

- log D7.4 (n = 6), ^99mTc-labeled [2]: −1.29 ± 0.08
Structure (SMILES): CC(C)C[C@H](NC(=O)C[C@H](O)[C@H](CC(C)C)NC(=O)[C@H](Cc1c[nH]cn1)NC(=O)CNC(=O)[C@@H](NC(=O)[C@H](C)NC(=O)[C@](C)(Cc1c[nH]c2ccccc12)NC(=O)[C@H](CCC(N)=O)NC(=O)[C@@H](Cc1ccccc1)NC(=O)CN1CCC(NC(=O)C(CNCCN)CNCCN)CC1)C(C)C)C(N)=O [N4-[α-Me-Trp^8]MJ9]
- tumor accumulation at 4 h p.i. compared to 1 h p.i. ([1]; mouse, in vivo): enhanced tumor accumulation compared to 1 h p.i.

- IC50 (GRPR; IC50 [nM] ± SD (n = 3), Table 5, non-labeled N4 ligands, [D-3-[125I]I-Tyr6]MJ9 (c = 0.2 nM)): 3.36 ± 0.42 nM
- log D7.4 (n = 6), ^99mTc-labeled [2]: −1.33 ± 0.06
Structure (SMILES): CC(C)C[C@H](NC(=O)C[C@H](O)[C@H](CC(C)C)NC(=O)[C@H](Cc1c[nH]cn1)NC(=O)CNC(=O)[C@@H](NC(=O)[C@H](C)NC(=O)[C@H](Cc1csc2ccccc12)NC(=O)[C@H](CCC(N)=O)NC(=O)[C@@H](Cc1ccccc1)NC(=O)CN1CCC(NC(=O)[C@H](CC(=O)O)NC(=O)C(CNCCN)CNCCN)CC1)C(C)C)C(N)=O [N4-asp-[Bta^8]MJ9] (X2-D[X1][dF]Q[Bta]AVGH[Sta]L-NH2)

Structure (SMILES): CC(C)C[C@H](NC(=O)C[C@H](O)[C@H](CC(C)C)NC(=O)[C@H](Cc1c[nH]cn1)NC(=O)CNC(=O)[C@@H](NC(=O)[C@H](C)NC(=O)[C@H](Cc1c[nH]c2ccccc12)NC(=O)[C@H](CCC(N)=O)NC(=O)[C@@H](Cc1ccccc1)NC(=O)CN1CCC(NC(=O)CN2CCN(CC(=O)O)CCN(CC(=O)O)CCN(CC(=O)O)CC2)CC1)C(C)C)C(N)=O [RM2, DOTA-Pip-D-Phe-Gln-Trp-Ala-Val-Gly-His-Sta-Leu-NH2]
- tumor retention ([1]; 177Lu-labeled, 24 h p.i., 100 pmol, FIGS. 11, 18, listed as [^177Lu]RM2): high amounts; also recorded: higher tumor retention than the other derivatives of this series
- Amount of intact tracer after incubation in human plasma for 72 ± 2 h (n = 2) ([3]; Table 1C, 177Lu-labeled, 72 ± 2 h, in % (unit assumed)): 33.5 ± 2.7
- amount of intact tracer (in vitro stability), mean ± SD ([3]; human plasma, 72±2 h): 33.5±2.7%
- metabolite, first-eluting peak in chromatogram [3, 5]: 54%
- metabolite, second peak in chromatogram [3, 5]: 9%
- remaining intact tracer in chromatogram ([3]; human plasma, 72±2 h, single chromatogram (FIGS. 1-4)): 36%
- metabolite, first-eluting peak in chromatogram ([4]; 6±0.5 h): 2%
- metabolite, second peak in chromatogram ([4]; 6±0.5 h): 2%
- metabolite, third peak in chromatogram ([4]; 6±0.5 h): 4%
- remaining intact tracer in chromatogram ([4]; 6±0.5 h, FIGS. 5-6): 92%
- remaining intact tracer in chromatogram ([4]; 72±2 h, FIGS. 7-8): 67%

- IC50 (GRPR; IC50 ± SD (n = 3), Table 3, [D-3-[125I]I-Tyr6]MJ9 (c = 0.2 nM), HBSS + 1% BSA): 1.33 ± 0.36 nM
- IC50 ± SD (n = 3) (GRPR; Table 3, [D-3-[125I]I-Tyr6]MJ9 (c = 0.2 nM), HBSS + 1% BSA): particularly high affinity
Structure (SMILES): CC(C)C[C@H](NC(=O)C[C@H](O)[C@H](CC(C)C)NC(=O)[C@H](Cc1c[nH]cn1)NC(=O)CNC(=O)[C@@H](NC(=O)[C@H](C)NC(=O)[C@H](Cc1c[nH]c2ccccc12)NC(=O)[C@H](CCC(N)=O)NC(=O)[C@@H](Cc1ccc(O)c(I)c1)NC(=O)CN1CCC(N)CC1)C(C)C)C(N)=O [[D-3-I-Tyr^6]MJ9, reference compound]
- Specific internalization (mean ± SD, n = 6) (PC-3 cells): 3.57 ± 0.57 % of the used activity
